In this assay the test system is CFU-G. The experiment in a line: Methocult colony assay (ex vivo bone marrow proliferation and differentiation). To be noted: 1 ng/ml or 10 ng/ml, Methocult M3434, 7 days. The assay is classed as cell-based, CD1 mice. As for the experimental part:
Bone marrow was flushed from the femur bones of two month old CD1 mice and was suspended in Iscove's Modified Dulbecco's Media (Sigma, St. Louis, Mo.) at a concentration of 1×10^5 per ml. Cells were thoroughly suspended in methocellulose M3434 media (Stem Cell Technologies, Vancouver, BC) such that 1×10^4 cells per 35 mm tissue culture dish were dispensed. Prior to dispensing into the tissue culture dishes either vehicle (PBS) or Vasculotide 1 ng/ml or 10 ng/ml was mixed in. Plates were placed in an incubator at 37° C., 5% CO2 for 7 days without replenishment of vehicle or Vasculotide. […] Using an ex vivo model of bone marrow proliferation and differentiation (methocult), the influence of Vasculotide on bone marrow extracted from the femurs of normal CD1 mice was observed. Bone marrow was disaggregated and resuspended in methocult M3434 media plus Vasculotide (Vasc 1 ng/ml or 10 ng/ml) or control (PBS).

“Also recorded” adds a separate entry of the source.

As for “Vasculotide: Modified T7 peptide (CHHHRHSF, SEQ ID NO:2) conjugated to 10 kDa tetrameric polyethylene glycol-maleimide; Tie2 binding peptide mimetic”, the “all other populations of cells (colonies)” value is reported as “statistically indistinguishable from PBS control”. Further, under “vs PBS”, the “total CFU-G numbers” value is given as “statistically significant, dose-dependent reduction; also recorded: dose dependent, statistically significant reduction”.

The values are drawn from patent publication US9186390B2, “Methods and uses of TIE2 binding and/or activating agents” (Sunnybrook Health Sciences Center, priority 2010, dated 2015).
